# Measured values published in patent publication US20260193170A1 (University of Copenhagen, priority 2022, published 2026).
# Molecular target: T1, human Keap1 Kelch domain (Homo sapiens, UniProt Q14145)
# T1 construct: human Keap1 Kelch domain (residue 321-609, UniProt Q14145); made in house; host or cells: Escherichia coli BL21 (DE3) pLysS, pRSET A vector
# Test: Fluorescence polarization (FP) competition assay, Cy5-Nrf2 peptide probe
# Format: binding
# Conditions: heterologous competition FP; Keap1 Kelch 14 nM, Cy5-Nrf2 probe 3 nM, 4% DMSO; mean ± SEM
# Protocol: The binding affinities between the fluorescent peptide probe Cy5-Nrf2 (SEQ: Cy5-[…]-NH2) and the human Keap1 Kelch domain were determined as Kd values by saturation binding experiments, where increasing concentrations of Keap1 (0-300 nM) were added to a fixed concentration of peptide probe (3 nM). The assay was performed in a 1× HBSTET buffer (10 mM HEPES, 150 mM NaCl, 0.005% Tween20, 3 mM ethylenediaminetetraacetic acid (EDTA), 1 mM TCEP, pH=7.4) using black flat-bottom 384-well plates (Corning Life Sciences, NY), a volume of 30 μL/well, and a final DMSO concentration of 4% or 8%. The assay plate was spun down to ascertain proper mixing and removal of potential air bubbles and incubated for 10-15 min at room temperature before measuring the FP levels on a Safire2 plate reader (Tecan, Mannedorf, Switzerland). The g-factor was adjusted at each experiment so that a series of three blank wells containing probe but no Keap1 Kelch defined the baseline FP value. The Cy5-Nrf2 probe was measured at excitation/emission values of 635:670 nm. The FP values were fitted to the one-site specific binding equation: Y=Bmax×X/(Kd+X), with Bmax being the maximal FP value, X the Keap1 Kelch concentration, and Y the variable FP values. The Kd values were derived from the resulting binding saturation curve as being equal to the Keap1 Kelch concentration, where the curve is half-saturated.
# The affinities between nonfluorescent small molecule Keap1 inhibitors and Keap1 Kelch were determined as Ki values in a heterologous competition FP binding assay. This was done by adding increasing concentration of test compound (2-fold serial dilutions, 12 concentrations tested per inhibition curve as duplicates) to a fixed concentration of Keap1 Kelch (14 nM) and the Cy5-Nrf2 peptide probe (3 nM) in the same HBSTET buffer and conditions as described above (final DMSO concentrations were 4%). FP values were fitted to the equation Y=Bottom+(Top−Bottom)/[1+(10^HillSlope×(log IC50−X))], where X is the logarithmic value of compound concentration. Hereby, the IC50 value was obtained, which together with the […] value and probe and Keap1 Kelch concentrations was used to calculate the theoretical competitive inhibition constant, the Ki value. 43 Ki values are shown as mean±SEM (standard error of mean) if based on two or more individual measurements.
# T1 sequence (Q14145 321-609): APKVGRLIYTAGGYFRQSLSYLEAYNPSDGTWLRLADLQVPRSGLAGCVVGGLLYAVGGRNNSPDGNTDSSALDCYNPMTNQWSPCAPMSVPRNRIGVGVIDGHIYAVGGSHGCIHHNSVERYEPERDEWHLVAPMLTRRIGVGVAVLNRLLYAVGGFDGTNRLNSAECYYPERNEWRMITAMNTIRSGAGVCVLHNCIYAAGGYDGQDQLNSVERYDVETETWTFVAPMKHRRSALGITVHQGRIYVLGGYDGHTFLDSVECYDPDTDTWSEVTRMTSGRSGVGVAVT
row,Ki [µM],SMILES
1,0.054,"COc1ccc(C(CC(=O)O)c2ccc3ccc(OCC(=O)NC4CCCCC4)cc3c2)c(C)c1 (stereo not shown) [3b, 3-(7-(2-(cyclohexylamino)-2-oxoethoxy)naphthalen-2-yl)-3-(4-methoxy-2-methylphenyl)propanoic acid]"
2,0.168 ± 0.003,"COc1cc(C)c(C(CC(=O)O)c2ccc3ccc(OCC(=O)NC4CCCCC4)cc3c2)c(C)c1 (stereo not shown) [3c, 3-(7-(2-(cyclohexylamino)-2-oxoethoxy)naphthalen-2-yl)-3-(4-methoxy-2,6-dimethylphenyl)propanoic acid]"
3,0.47 ± 0.047,"O=C(O)CC(c1cccc(Cl)c1)c1ccc2ccc(OCC(=O)NC3CCCCC3)cc2c1 (stereo not shown) [3d, 3-(3-chlorophenyl)-3-(7-(2-(cyclohexylamino)-2-oxoethoxy)naphthalen-2-yl)propanoic acid]"
4,0.066 ± 0.006,"Cc1c(Cl)cccc1C(CC(=O)O)c1ccc2ccc(OCC(=O)NC3CCCCC3)cc2c1 (stereo not shown) [3e, 3-(3-chloro-2-methylphenyl)-3-(7-(2-(cyclohexylamino)-2-oxoethoxy)naphthalen-2-yl)propanoic acid]"
5,0.059 ± 0.006,"O=C(O)CC(c1ccc2c(c1)OCO2)c1ccc2ccc(OCC(=O)NC3CCCCC3)cc2c1 (stereo not shown) [3f, 3-(benzo[d][1,3]dioxol-5-yl)-3-(7-(2-(cyclohexylamino)-2-oxoethoxy)naphthalen-2-yl)propanoic acid]"
6,0.018 ± 0.006,"Cc1cc2c(cc1C(CC(=O)O)c1ccc3ccc(OCC(=O)NC4CCCCC4)cc3c1)OCO2 (stereo not shown) [3g, 3-(7-(2-(cyclohexylamino)-2-oxoethoxy)naphthalen-2-yl)-3-(6-methylbenzo[d][1,3]dioxol-5-yl)propanoic acid]"
7,0.0048 ± 0.001,"CCn1nnc2c(C)c(C(CC(=O)O)c3ccc4ccc(OCC(=O)NC5CCCCC5)cc4c3)ccc21 (stereo not shown) [3h, 3-(7-(2-(cyclohexylamino)-2-oxoethoxy)naphthalen-2-yl)-3-(1-ethyl-4-methyl-1H-benzo[d][1,2,3]triazol-5-yl)propanoic acid]"
8,0.082 ± 0.008,"O=C(O)CC(c1ccc2c(c1)CCO2)c1ccc2ccc(OCC(=O)NC3CCCCC3)cc2c1 (stereo not shown) [3i, 3-(7-(2-(cyclohexylamino)-2-oxoethoxy)naphthalen-2-yl)-3-(2,3-dihydrobenzofuran-5-yl)propanoic acid]"
9,0.14 ± 0.011,"CC1(C)Oc2ccc(C(CC(=O)O)c3ccc4ccc(OCC(=O)NC5CCCCC5)cc4c3)cc2O1 (stereo not shown) [3j, 3-(7-(2-(cyclohexylamino)-2-oxoethoxy)naphthalen-2-yl)-3-(2,2-dimethylbenzo[d][1,3]dioxol-5-yl)propanoic acid]"
10,0.052 ± 0.003,"O=C(O)CC(c1ccc2c(c1)OC(F)(F)O2)c1ccc2ccc(OCC(=O)NC3CCCCC3)cc2c1 (stereo not shown) [3k, 3-(7-(2-(cyclohexylamino)-2-oxoethoxy)naphthalen-2-yl)-3-(2,2-difluorobenzo[d][1,3]dioxol-5-yl)propanoic acid]"
11,0.029 ± 0.001,"O=C(O)CC(c1ccc2c(c1)OCCO2)c1ccc2ccc(OCC(=O)NC3CCCCC3)cc2c1 (stereo not shown) [3l, 3-(7-(2-(cyclohexylamino)-2-oxoethoxy)naphthalen-2-yl)-3-(2,3-dihydrobenzo[b][1,4]dioxin-6-yl)propanoic acid]"
12,0.15 ± 0.014,"COc1ccc(C)c(C(CC(=O)O)c2ccc3ccc(OCC(=O)NC4CCCCC4)cc3c2)c1 (stereo not shown) [3m, 3-(7-(2-(cyclohexylamino)-2-oxoethoxy)naphthalen-2-yl)-3-(5-methoxy-2-methylphenyl)propanoic acid]"
13,0.129 ± 0.013,"Cc1nc2[nH]ccc2cc1C(CC(=O)O)c1ccc2ccc(OCC(=O)NC3CCCCC3)cc2c1 (stereo not shown) [3n, 3-(7-(2-(cyclohexylamino)-2-oxoethoxy)naphthalen-2-yl)-3-(6-methyl-1H-pyrrolo[2,3-b]pyridin-5-yl)propanoic acid]"
14,0.068 ± 0.012,"O=C(O)CC(c1ccc2ccc(OCC(=O)NC3CCCCC3)cc2c1)c1ccc2occc2c1 (stereo not shown) [3o, 3-(Benzofuran-5-yl)-3-(7-(2-(cyclohexylamino)-2-oxoethoxy)naphthalen-2-yl)propanoic acid]"
15,0.234 ± 0.04,"Cc1ccc(Cl)cc1C(CC(=O)O)c1ccc2ccc(OCC(=O)NC3CCCCC3)cc2c1 (stereo not shown) [3p, 3-(5-Chloro-2-methylphenyl)-3-(7-(2-(cyclohexylamino)-2-oxoethoxy)naphthalen-2-yl)propanoic acid]"
16,0.015 ± 0.001,"Cc1cc2c(cc1C(CC(=O)O)c1ccc3ccc(OCC(=O)NC4CCCCC4)cc3c1)OCCO2 (stereo not shown) [3q, 3-(7-(2-(cyclohexylamino)-2-oxoethoxy)naphthalen-2-yl)-3-(7-methyl-2,3-dihydrobenzo[b][1,4]dioxin-6-yl)propanoic acid]"

row,Ki [µM],SMILES
1,0.007 ± 0.001,Cc1cc2c(cc1C(CC(=O)O)c1ccc3ccc(OCC(=O)NC4CCCCC4)cc3c1)OC(F)(F)O2 (stereo not shown) [3r]
2,0.024 ± 0.001,"Cc1cc2occc2cc1C(CC(=O)O)c1ccc2ccc(OCC(=O)NC3CCCCC3)cc2c1 (stereo not shown) [3s, 3-(7-(2-(cyclohexylamino)-2-oxoethoxy)naphthalen-2-yl)-3-(6-methylbenzofuran-5-yl)propanoic acid]"
3,0.032 ± 0.001,"Cc1cc2c(cc1C(CC(=O)O)c1ccc3ccc(OCC(=O)NC4CCCCC4)cc3c1)CCO2 (stereo not shown) [3t, 3-(7-(2-(cyclohexylamino)-2-oxoethoxy)naphthalen-2-yl)-3-(6-methyl-2,3-dihydrobenzofuran-5-yl)propanoic acid]"
4,0.025 ± 0.002,"O=C(O)CC(c1ccc2c(c1)OCO2)c1ccc2ccc(OCC(=O)NC3C=CCCC3)cc2c1 (stereo not shown) [4a, 3-(Benzo[d][1,3]dioxol-5-yl)-3-(7-(2-(cyclohex-2-en-1-ylamino)-2-oxoethoxy)naphthalen-2-yl)propanoic acid]"
5,0.004 ± 0.001,"Cc1cc2c(cc1C(CC(=O)O)c1ccc3ccc(OCC(=O)NC4C=CCCC4)cc3c1)OCO2 (stereo not shown) [4b, 3-(7-(2-(Cyclohex-2-en-1-ylamino)-2-oxoethoxy)naphthalen-2-yl)-3-(6-methylbenzo[d][1,3]dioxol-5-yl)propanoic acid]"
6,0.038 ± 0.006,"Cc1c(Cl)cccc1C(CC(=O)O)c1ccc2ccc(OCC(=O)NC3C=CCCC3)cc2c1 (stereo not shown) [4c, 3-(3-Chloro-2-methylphenyl)-3-(7-(2-(cyclohex-2-en-1-ylamino)-2-oxoethoxy)naphthalen-2-yl)propanoic acid]"
7,0.02 ± 0.002,"O=C(O)CC(c1ccc2c(c1)OCCO2)c1ccc2ccc(OCC(=O)NC3C=CCCC3)cc2c1 (stereo not shown) [4d, 3-(7-(2-(cyclohex-2-en-1-ylamino)-2-oxoethoxy)naphthalen-2-yl)-3-(2,3-dihydrobenzo[b][1,4]dioxin-6-yl)propanoic acid]"
8,0.027 ± 0.004,"O=C(O)CC(c1ccc2c(c1)CCO2)c1ccc2ccc(OCC(=O)NC3C=CCCC3)cc2c1 (stereo not shown) [4e, 3-(7-(2-(Cyclohex-2-en-1-ylamino)-2-oxoethoxy)naphthalen-2-yl)-3-(2,3-dihydrobenzofuran-5-yl)propanoic acid]"
9,0.03 ± 0.002,"O=C(O)CC(c1ccc2c(c1)OC(F)(F)O2)c1ccc2ccc(OCC(=O)NC3C=CCCC3)cc2c1 (stereo not shown) [4f, 3-(7-(2-(Cyclohex-2-en-1-ylamino)-2-oxoethoxy)naphthalen-2-yl)-3-(2,2-difluorobenzo[d][1,3]dioxol-5-yl)propanoic acid]"
10,0.021 ± 0.002,"O=C(O)CC(c1ccc2ccc(OCC(=O)NC3C=CCCC3)cc2c1)c1ccc2occc2c1 (stereo not shown) [4g, 3-(Benzofuran-5-yl)-3-(7-(2-(cyclohex-2-en-1-ylamino)-2-oxoethoxy)naphthalen-2-yl)propanoic acid]"
11,0.048 ± 0.005,"Cc1ccc(Cl)cc1C(CC(=O)O)c1ccc2ccc(OCC(=O)NC3C=CCCC3)cc2c1 (stereo not shown) [4h, 3-(5-Chloro-2-methylphenyl)-3-(7-(2-(cyclohex-2-en-1-ylamino)-2-oxoethoxy)naphthalen-2-yl)propanoic acid]"
12,0.017 ± 0.003,"Cc1cc2c(cc1C(CC(=O)O)c1ccc3ccc(OCC(=O)NC4C=CCCC4)cc3c1)OCCO2 (stereo not shown) [4i, 3-(7-(2-(cyclohex-2-en-1-ylamino)-2-oxoethoxy)naphthalen-2-yl)-3-(7-methyl-2,3-dihydrobenzo[b][1,4]dioxin-6-yl)propanoic acid]"
13,0.206 ± 0.015,"O=C(O)CC(c1cccc(Cl)c1)c1ccc2ccc(OCC(=O)NC3C=CCCC3)cc2c1 (stereo not shown) [4j, 3-(3-chlorophenyl)-3-(7-(2-(cyclohex-2-en-1-ylamino)-2-oxoethoxy)naphthalen-2-yl)propanoic acid]"
14,0.017 ± 0.004,"COc1ccc(C(CC(=O)O)c2ccc3ccc(OCC(=O)NC4C=CCCC4)cc3c2)c(C)c1 (stereo not shown) [4k, 3-(7-(2-(cyclohex-2-en-1-ylamino)-2-oxoethoxy)naphthalen-2-yl)-3-(4-methoxy-2-methylphenyl)propanoic acid]"
15,0.016 ± 0.005,"Cc1cc2c(cc1C(CC(=O)O)c1ccc3ccc(OCC(=O)NC4C=CCCC4)cc3c1)OC(F)(F)O2 (stereo not shown) [4l, 3-(7-(2-(cyclohex-2-en-1-ylamino)-2-oxoethoxy)naphthalen-2-yl)-3-(2,2-difluoro-6-methylbenzo[d][1,3]dioxol-5-yl)propanoic acid]"
